What follows are compounds tested on SKBR3 (PIK3CA WT) cells (assay: pS473 AKT assay, SKBR3 cells). Details: Homo sapiens, SK-BR-3, pSer473 AKT, complete medium with 10% fetal bovine serum, 2 h treatment, read-out: SKBR3_IC50.
Type: cell-based
Procedure: (§1) Example A. pS473 AKT Assay Protocol
(§2) SKBR3 (PIK3CA WT), MCF7 (PIK3CA E545K), and T47D (PIK3CA H1047R) cells were cultured using 10-cm petri dishes with recommended medium plus 10% fetal bovine serum. One day before the assay, cells were seeded in 96-well plates at a final density of 10,000 cells per well. After overnight incubation in complete medium, cells were treated with different concentrations of PI3Kα inhibitors for 2 h. Cells were then fixed using 4% paraformaldehyde at room temperature for 20 min. Aspirate 4% paraformaldehyde, and wash cells using 1× regular phosphate buffered saline 3 times, 5 min each. Aspirate any residual phosphate buffered saline and block cells using 10% goat serum containing 1% bovine serum albumin and 0.3% Triton X-100 at room temperature for 1 h. Without any additional washing, primary antibodies (rabbit anti-pSer473 AKT) were diluted using blocking buffer and added at a final volume of 50 microliter per well. Keep assay plates with primary antibodies overnight at 4° C. Wash cells using 1× regular phosphate buffered saline 3 times, 5 min each. After the final wash, incubate cells with horseradish peroxidase-conjugated secondary antibodies (goat Anti-rabbit IgG) diluted using the same blocking buffer at room temperature for 1 h. Wash cells thoroughly using 1× regular phosphate buffered saline 3 times, 5 min each. Aspirate any residual phosphate buffered saline. Add Super-Signal ELISA Pico Chemiluminescent Substrate at a final volume of 100 microliter per well. Read plates on i3x Multi-Mode Microplate Reader and calculate IC50 values using GraphPad Prism software.

Compound | IC50 [nM]
Cc1cc(C(C)Nc2ccccc2C(=O)O)c2c(c1)c(=O)n(C)c1ccnn21 (stereo not drawn) [Compound I-1, 2-((1-(4,7-dimethyl-5-oxo-4,5-dihydropyrazolo[1,5-a]quinazolin-9-yl)ethyl)amino)benzoic acid] | > 30000
Cc1cc(C(C)Nc2ccccc2C(=O)O)c2c(c1)c(=O)n(C)c1c(-c3ccccc3)cnn21 (stereo not drawn) [Compound I-2, 2-((1-(4,7-dimethyl-5-oxo-3-phenyl-4,5-dihydropyrazolo[1,5-a]quinazolin-9-yl)ethyl)amino)benzoic acid] | > 30000

What follows are compounds tested on T47D (PIK3CA H1047R) cells (assay: pS473 AKT assay, T47D cells). Details: Homo sapiens, pSer473 AKT, complete medium with 10% fetal bovine serum, 2 h treatment, read-out: T47D_IC50.
Type: cell-based
Procedure: as §1, §2

Compound | IC50 [nM]
Cc1cc(C(C)Nc2ccccc2C(=O)O)c2c(c1)c(=O)n(C)c1ccnn21 (stereo not drawn) [Compound I-1, 2-((1-(4,7-dimethyl-5-oxo-4,5-dihydropyrazolo[1,5-a]quinazolin-9-yl)ethyl)amino)benzoic acid] | 1000 to 5000
Cc1cc(C(C)Nc2ccccc2C(=O)O)c2c(c1)c(=O)n(C)c1c(-c3ccccc3)cnn21 (stereo not drawn) [Compound I-2, 2-((1-(4,7-dimethyl-5-oxo-3-phenyl-4,5-dihydropyrazolo[1,5-a]quinazolin-9-yl)ethyl)amino)benzoic acid] | 1000 to 5000

The compounds below were run on T47D (PIK3CA H1047R) cells (assay: pS473 AKT assay with 2.5% FBS, T47D cells). Details: Homo sapiens, pSer473 AKT, DMEM with 2.5% FBS, 2 h treatment, read-out: T47D_IC50.
Type: cell-based
In short: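 In-cell chemiluminescent ELISA of AKT Ser473 phosphorylation, using anti-pSer473 primary and HRP secondary antibodies on fixed cells. T47D (PIK3CA H1047R) cells had 2 h of compound treatment in DMEM containing 2.5% FBS; IC50 derived from dose-response.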

Compound | IC50 [nM]
CCn1c(=O)c2cc(C)cc(C(C)Nc3ccc(Cl)nc3N3CCOCC3)c2c2cnn(-c3ccccn3)c21 (stereo not drawn) [Example 270, 9-(1-((6-chloro-2-morpholinopyridin-3-yl)amino)ethyl)-4-ethyl-7-methyl-3-(pyridin-2-yl)-3,4-dihydro-5H-pyrazolo[3,4-c]isoquinolin-5-one] | < 1000
CCn1c(=O)c2cc(C)cc(C(C)Nc3ccc(Cl)nc3-c3ccc(C(=O)NC)nc3)c2c2cnn(-c3ccccn3)c21 (stereo not drawn) [Example 271, 6-chloro-3-((1-(4-ethyl-7-methyl-5-oxo-3-(pyridin-2-yl)-4,5-dihydro-3H-pyrazolo[3,4-c]isoquinolin-9-yl)ethyl)amino)-N-methyl-[2,3′-bipyridine]-6′-carboxamide] | < 1000
Cc1cc(C(C)Nc2ccc(Cl)nc2-c2noc(=O)[nH]2)c2c(c1)c(=O)n(C)c1c2cnn1-c1ccccn1 (stereo not drawn) [Example 272, 3-(6-chloro-3-((1-(4,7-dimethyl-5-oxo-3-(pyridin-2-yl)-4,5-dihydro-3H-pyrazolo[3,4-c]isoquinolin-9-yl)ethyl)amino)pyridin-2-yl)-1,2,4-oxadiazol-5(4H)-one] | < 1000
Cc1cc(C(C)Nc2ccc(Cl)nc2-c2cnn(C)c2)c2c(c1)c(=O)n(C)c1c2cnn1-c1ccccn1 (stereo not drawn) [Example 273, 9-(1-((6-chloro-2-(1-methyl-1H-pyrazol-4-yl)pyridin-3-yl)amino)ethyl)-4,7-dimethyl-3-(pyridin-2-yl)-3,4-dihydro-5H-pyrazolo[3,4-c]isoquinolin-5-one] | < 1000
CCn1c(=O)c2cc(C)cc(C(C)Nc3ccc(Cl)nc3-c3ncn(C)n3)c2c2cnn(-c3cccnc3)c21 (stereo not drawn) [Example 274, 9-[1-[[6-Chloro-2-(1-methyl-1,2,4-triazol-3-yl)-3-pyridyl]amino]ethyl]-4-ethyl-7-methyl-3-(3-pyridyl)pyrazolo[3,4-c]isoquinolin-5-one] | < 1000
Cc1cc(C(C)Nc2ccc(Cl)nc2-c2cnn(C)c2)c2c(c1)c(=O)n(C)c1c2cnn1Cc1ccccn1 (stereo not drawn) [Example 275, 9-[1-[[6-Chloro-2-(1-methylpyrazol-4-yl)-3-pyridyl]amino]ethyl]-4,7-dimethyl-3-(2-pyridylmethyl)pyrazolo[3,4-c]isoquinolin-5-one] | < 1000
Cc1cc(C(C)Nc2ccc(Cl)nc2-c2noc(=O)[nH]2)c2c(c1)c(=O)n(C)c1c2cnn1Cc1ccccn1 (stereo not drawn) [Example 276, 3-(6-Chloro-3-((1-(4,7-dimethyl-5-oxo-3-(pyridin-2-ylmethyl)-4,5-dihydro-3H-pyrazolo[3,4-c]isoquinolin-9-yl)ethyl)amino)pyridin-2-yl)-1,2,4-oxadiazol-5(4H)-one] | < 1000
Cc1cc(C(C)Nc2ccc(Cl)nc2-c2ncn(C)n2)c2c(c1)c(=O)n(C)c1c2cnn1C1CCCN(C)C1 (stereo not drawn) [Example 277, 9-[1-[[6-Chloro-2-(1-methyl-1,2,4-triazol-3-yl)-3-pyridyl]amino]ethyl]-4,7-dimethyl-3-(1-methyl-3-piperidyl)pyrazolo[3,4-c]isoquinolin-5-one] | < 1000
Cc1cc(C(C)Nc2ccc(Cl)nc2-c2ncn(C)n2)c2c(c1)c(=O)n(C)c1c2cnn1C1CCCN(CCO)C1 (stereo not drawn) [Example 278, 9-[1-[[6-chloro-2-(1-methyl-1,2,4-triazol-3-yl)-3-pyridyl]amino]ethyl]-3-[1-(2-hydroxyethyl)-3-piperidyl]-4,7-dimethyl-pyrazolo[3,4-c]isoquinolin-5-one] | < 1000
Cc1cc(C(C)Nc2ccc(Cl)nc2-c2cnn(C)c2)c2c(c1)c(=O)n(C)c1c2cnn1C1CCCN(C)C1 (stereo not drawn) [Example 279, 9-[1-[[6-chloro-2-(1-methylpyrazol-4-yl)-3-pyridyl]amino]ethyl]-4,7-dimethyl-3-(1-methyl-3-piperidyl)pyrazolo[3,4-c]isoquinolin-5-one] | < 1000
Cc1cc(C(C)Nc2ccc(Cl)nc2-c2cnn(C)c2)c2c(c1)c(=O)n(C)c1c2cnn1C1CCCN(CCO)C1 (stereo not drawn) [Example 280, 9-[1-[[6-chloro-2-(1-methylpyrazol-4-yl)-3-pyridyl]amino]ethyl]-3-[1-(2-hydroxyethyl)-3-piperidyl]-4,7-dimethyl-pyrazolo[3,4-c]isoquinolin-5-one] | < 1000
COC(=O)N1CCCC(n2ncc3c4c(C(C)Nc5ccc(Cl)nc5-c5cnn(C)c5)cc(C)cc4c(=O)n(C)c32)C1 (stereo not drawn) [Example 281, methyl 3-[9-[1-[[6-chloro-2-(1-methylpyrazol-4-yl)-3-pyridyl]amino]ethyl]-4,7-dimethyl-5-oxo-pyrazolo[3,4-c]isoquinolin-3-yl]piperidine-1-carboxylate] | < 1000
CNC(=O)c1ccc(-c2nc(Cl)ccc2OC(C)c2cc(C)cc3c(=O)n(C)c4c(cnn4C4CCN(C)CC4)c23)cn1 (stereo not drawn) [Example 282, 5-[6-Chloro-3-[1-[4,7-dimethyl-3-(1-methyl-4-piperidyl)-5-oxo-pyrazolo[3,4-c]isoquinolin-9-yl]ethoxy]-2-pyridyl]-N-methyl-pyridine-2-carboxamide] | < 1000
CNC(=O)c1ccc(-c2nc(Cl)ccc2OC(C)c2cc(C)cc3c(=O)n(C)c4c(cnn4C4CCN(C(C)=O)CC4)c23)cn1 (stereo not drawn) [Example 283, 5-[3-[1-[3-(1-Acetyl-4-piperidyl)-4,7-dimethyl-5-oxo-pyrazolo[3,4-c]isoquinolin-9-yl]ethoxy]-6-chloro-2-pyridyl]-N-methyl-pyridine-2-carboxamide] | < 1000
Cc1cc(C(C)Nc2ccc(Cl)nc2-c2ncn(C)n2)c2c(c1)c(=O)n1c3c2cnn3C(CO)CC1 (stereo not drawn) [Example 284, 10-(1-((6-Chloro-2-(1-methyl-1H-1,2,4-triazol-3-yl)pyridin-3-yl)amino)ethyl)-3-(hydroxymethyl)-8-methyl-4,5-dihydro-3H,6H-2,2a,5a-triazaaceanthrylen-6-one] | < 1000
Cc1cc(C(C)Nc2ccc(Cl)nc2-c2nnn(C)n2)c2c(c1)c(=O)n1c3c2cnn3C(CO)CC1 (stereo not drawn) [Example 285, 10-(1-((6-chloro-2-(2-methyl-2H-tetrazol-5-yl)pyridin-3-yl)amino)ethyl)-3-(hydroxymethyl)-8-methyl-4,5-dihydro-3H,6H-2,2a,5a-triazaaceanthrylen-6-one] | < 1000
Cc1cc(C(C)Nc2ccc(Cl)nc2-c2nnco2)c2c(c1)c(=O)n1c3c2cnn3C(CO)CC1 (stereo not drawn) [Example 286, 10-(1-((6-chloro-2-(1,3,4-oxadiazol-2-yl)pyridin-3-yl)amino)ethyl)-3-(hydroxymethyl)-8-methyl-4,5-dihydro-3H,6H-2,2a,5a-triazaaceanthrylen-6-one] | < 1000
Cc1cc(C(C)Nc2ccc(Cl)nc2-c2cnn(C)c2)c2c(c1)c(=O)n1c3c2cnn3C(CO)CC1 (stereo not drawn) [Example 287, 10-(1-((6-chloro-2-(1-methyl-1H-pyrazol-4-yl)pyridin-3-yl)amino)ethyl)-3-(hydroxymethyl)-8-methyl-4,5-dihydro-3H,6H-2,2a,5a-triazaaceanthrylen-6-one] | < 1000
Cc1cc(C(C)Nc2ccc(Cl)nc2-c2c[nH]nc2C)c2c(c1)c(=O)n1c3c2cnn3C(CO)CC1 (stereo not drawn) [Example 288, 10-(1-((6-chloro-2-(3-methyl-1H-pyrazol-4-yl)pyridin-3-yl)amino)ethyl)-3-(hydroxymethyl)-8-methyl-4,5-dihydro-3H,6H-2,2a,5a-triazaaceanthrylen-6-one] | < 1000
Cc1cc(C(C)Nc2ccc(Cl)nc2-c2ccc(=O)n(C)c2)c2c(c1)c(=O)n1c3c2cnn3C(CO)CC1 (stereo not drawn) [Example 289, 10-(1-((6-chloro-1′-methyl-6′-oxo-1′,6′-dihydro-[2,3′-bipyridin]-3-yl)amino)ethyl)-3-(hydroxymethyl)-8-methyl-4,5-dihydro-3H,6H-2,2a,5a-triazaaceanthrylen-6-one] | < 1000
Cc1cc(C(C)Nc2ccc(Cl)nc2-c2ncn(C)n2)c2c(c1)c(=O)n1c3c2cnn3C(CN(C)C)CC1 (stereo not drawn) [Example 290, 10-(1-((6-Chloro-2-(1-methyl-1H-1,2,4-triazol-3-yl)pyridin-3-yl)amino)ethyl)-3-((dimethylamino)methyl)-8-methyl-4,5-dihydro-3H,6H-2,2a,5a-triazaaceanthrylen-6-one] | < 1000

The compounds below were run on MCF7 (PIK3CA E545K) cells (assay: pS473 AKT assay, MCF7 cells). Details: Homo sapiens, pSer473 AKT, complete medium with 10% fetal bovine serum, 2 h treatment, read-out: MCF7_IC50.
Type: cell-based
Procedure: as §1, §2

Compound | IC50 [nM]
Cc1cc(C(C)Nc2ccccc2C(=O)O)c2c(c1)c(=O)n(C)c1ccnn21 (stereo not drawn) [Compound I-1, 2-((1-(4,7-dimethyl-5-oxo-4,5-dihydropyrazolo[1,5-a]quinazolin-9-yl)ethyl)amino)benzoic acid] | > 30000
Cc1cc(C(C)Nc2ccccc2C(=O)O)c2c(c1)c(=O)n(C)c1c(-c3ccccc3)cnn21 (stereo not drawn) [Compound I-2, 2-((1-(4,7-dimethyl-5-oxo-3-phenyl-4,5-dihydropyrazolo[1,5-a]quinazolin-9-yl)ethyl)amino)benzoic acid] | > 30000
